Measurements as given in article PMC6950750, “Newly Discovered Action of HpTx3 from Venom of Heteropoda venatoria on Nav1.7 and Its Pharmacological Implications in Analgesia” (Toxins, 2019).
Bridge positions count the residues as written; N and C are the ends. Peptide text beside a SMILES is read from it.

Legend:
Nav1.2 = target: T1, Nav1.2 (Rattus norvegicus, UniProt P04775); test: Whole-cell patch-clamp, Nav1.2 currents in HEK293T cells; type: cell-based
T1 construct: expressed in transfected cells; host or cells: HEK293T
Text: (§1) All the used Nav channel subtype clones (Nav1.2–Nav1.9) and β subunit clones were preserved in our laboratory. cDNAs encoding rat Nav1.2, rat Nav1.3, human Nav1.5, and mouse Nav1.6 were subcloned into the vector pcDNA3.1; cDNA encoding rat Nav1.4 was subcloned into the vector pRGB4; cDNA encoding human Nav1.7 was subcloned into the vector pcDNA3.1-mod; cDNAs encoding rat Nav1.8 and human Nav1.9 were subcloned into the vectors pCMV-HA and pEGFP-N1, respectively. For localizing the binding sites of HpTx3 on the Nav1.7 and therefore probing the its mechanism of action, several chimeras were constructed with a recombination strategy by replacing the extracellular loop S3b–S4 in domain II, domain III, and domain IV of Nav1.7 with the counterpart sequences of Nav1.8, respectively, using the methods described. As a result, three chimeras were prepared, namely, Nav1.7/1.8DIIS3b–S4, Nav1.7/1.8DIII, and Nav1.7/1.8 DIV. […]
(§2) For heterologous expression, the vector plasmids containing wild-type (WT) Nav1.2–Nav1.7 and mutant plasmids were transiently transfected into HEK293T cells (China Center for Type Culture Collection, Wuhan, China) using Lipofectamine 2000 (Invitrogen, Carlsbad, CA, USA) according to the manufacturer’s instructions. […] The cells with green fluorescence were selected for whole-cell patch-clamp analysis 24 h after transfection. […]

Nav1.3 = target: T2, Nav1.3 (Rattus norvegicus, UniProt P08104); test: Whole-cell patch-clamp, Nav1.3 currents in HEK293T cells; type: cell-based
T2 construct: expressed in transfected cells; host or cells: HEK293T
Text: as §1, §2

Nav1.4 = target: T3, Nav1.4 (Rattus norvegicus, UniProt P15390); test: Whole-cell patch-clamp, Nav1.4 currents in HEK293T cells; type: cell-based
T3 construct: expressed in transfected cells; host or cells: HEK293T
Text: as §1, §2

Nav1.5 = target: T4, Nav1.5 (Homo sapiens, UniProt Q14524); test: cell-based; type: cell-based
T4 construct: expressed in transfected cells; host or cells: HEK293T
Text: as §1, §2

Nav1.6 = target: T5, Nav1.6 (Mus musculus, UniProt Q9WTU3); test: Whole-cell patch-clamp, Nav1.6 currents in HEK293T cells; type: cell-based; details: HEK-293T, 1 μM HpTx3, n = 4–6
T5 construct: expressed in transfected cells; host or cells: HEK293T
Text: as §1, §2

Nav1.7 [1] = target: T6, Nav1.7 (Homo sapiens, UniProt Q15858); test: Whole-cell patch-clamp, Nav1.7 currents in HEK293T cells; type: cell-based; details: wild type Nav1.7, HEK293T, mean ± SD, n = 4–6
T6 construct: expressed in transfected cells; host or cells: HEK293T
Text: as §1, §2

Nav1.7 D816N = target: T7, Nav1.7 D816N (Homo sapiens, UniProt Q15858, D827N); test: Whole-cell patch-clamp, mutant Nav1.7 D816N; type: cell-based
T7 construct: expressed in transfected cells; host or cells: HEK293T
Text: All the used Nav channel subtype clones (Nav1.2–Nav1.9) and β subunit clones were preserved in our laboratory. cDNAs encoding rat Nav1.2, rat Nav1.3, human Nav1.5, and mouse Nav1.6 were subcloned into the vector pcDNA3.1; cDNA encoding rat Nav1.4 was subcloned into the vector pRGB4; cDNA encoding human Nav1.7 was subcloned into the vector pcDNA3.1-mod; cDNAs encoding rat Nav1.8 and human Nav1.9 were subcloned into the vectors pCMV-HA and pEGFP-N1, respectively. For localizing the binding sites of HpTx3 on the Nav1.7 and therefore probing the its mechanism of action, several chimeras were constructed with a recombination strategy by replacing the extracellular loop S3b–S4 in domain II, domain III, and domain IV of Nav1.7 with the counterpart sequences of Nav1.8, respectively, using the methods described. As a result, three chimeras were prepared, namely, Nav1.7/1.8DIIS3b–S4, Nav1.7/1.8DIII, and Nav1.7/1.8 DIV. Moreover, the amino acid residues D816 and E818 in the S3b–S4 sequence of Nav1.7 were mutated into N (Nav1.7 D816N) and Q (Nav1.7 […]), respectively.
For heterologous expression, the vector plasmids containing wild-type (WT) Nav1.2–Nav1.7 and mutant plasmids were transiently transfected into HEK293T cells (China Center for Type Culture Collection, Wuhan, China) using Lipofectamine 2000 (Invitrogen, Carlsbad, CA, USA) according to the manufacturer’s instructions. […] The cells with green fluorescence were selected for whole-cell patch-clamp analysis 24 h after transfection.
The whole-cell patch-clamp technique was employed to analyze the effects of HpTx3 on Nav channel subtypes in the transfected HEK293T and ND7/23 cells using an EPC-10 USB patch-clamp amplifier (HEKA, Elektronik, Lambrecht, Germany). […] Data were collected with the PatchMaster software in the HEKA EPC-10 USB patch-clamp system (HEKA Elektronik, Lambrecht, Germany) and analyzed by the software Igo Pro-6.00, Prism (GraphPad Software, La Jolla, CA, USA), Sigmaplot 10.0 (Systat Software, Inc., San Jose, CA, USA), and OriginPro. […]

C57BL/6 mice = test: In vivo toxicity; set-up: species or system mouse (C57BL/6); details: 20 mg/kg i.p., 8 mice
Protocol: For detecting the potential in vivo toxicity of HpTx3, eight C57BL/6 mice were each intraperitoneally injected with HpTx3 at a dose of 20 mg/kg, which was 4-fold greater than the maximum dose (5 mg/kg) and 100-fold greater than the minimum dose (0.2 mg/kg) that were used in analgesic experiments.

hERG channel = test: Whole-cell patch-clamp, hERG channel in HEK293T cells; type: cell-based; details: 1 µM HpTx3, n = 3
Protocol: The effect of HpTx3 on the hERG channel expressed in HEK293T cells was assayed using the whole cell patch-clamp technique according to the previous method with some modifications. The bathing solution contained (in mM): HEPES 10, MgCl2 1, CaCl2 25, KCl 5, NaCl 50 (pH 7.4, adjusted with 1 M NaOH). The suction pipettes solution contained (in mM): MgCl2 2.5, KCl 140, EGTA 11, HEPES 10 (pH 7.2, adjusted with KOH). The osmotic pressure of the two solutions was adjusted to 280 ± 5 mOsm/L with sucrose. The currents of the hERG channel were induced at −40 mV after a test potential of +30 mV from a holding potential of −80 mV.

[2] = test system: nociceptive neuron excitability; details: orofacial and other regions in patients; cited from earlier work
Text: Kv4 channels are expressed predominately in the somata of small and large diameter nociceptors and the dorsal horn of the spinal cord, and all three Kv4 mRNA isoforms (Kv4.1–4.3) are expressed in whole DRG preparations. Overexpression of various components of the Kv4 complex attenuated DGR excitability and pain phenotypes of animals. The drugs that can increase A-type Kv ...

[3] = test system: C57BL/6 mice, formalin-induced pain model; test: Formalin-induced paw licking; type: in vivo, mouse (C57BL/6); details: morphine 1 mg/kg i.m., n = 8
Protocol: (§3) Healthy female C57BL/6 mice (weighting 18–20 g) that were used for analgesic activity assay were obtained from the Experimental Animal Center of SLac-kinda (Changsha, China) and were randomly assigned to five groups, each group generally containing 8 mice. […] The mice were maintained at a temperature of 20–25 °C and under a 12 h light/12 h dark cycle, with free access to food and water. The ethical approval for the in vivo animal experiments was obtained from the Animal Care and Use Committee of the Hunan Province Animal Management Office. (The approval code: 219/2019).
The changes in the formalin-induced nociceptive reaction in mice was used to assess the in vivo effect of HpTx3 on Nav1.7-mediated pain [74, 77, 78]. Paw licking, a pain-related behavior, was induced by subcutaneous intraplantar injection of formalin. […] The time that was spent to lick the injected paw by each mouse during phase I (0–10 min after injection) and phase II (15–35 min after injection) was separately recorded with a digital stopwatch. The nociceptive behavior attenuation by HpTx3 was evaluated by comparison of the paw licking times of the mice in each group.

[4] = test system: C57BL/6 mice, CFA pain model; test: Complete Freund’s adjuvant (CFA)-induced hyperalgesia; type: in vivo, mouse (C57BL/6); details: morphine 1 mg/kg i.m.
Protocol: as §3

[5] = test system: C57BL/6 mice, hot plate pain model; test: Hot plate test; type: in vivo, mouse (C57BL/6); details: morphine 1 mg/kg i.p.
Protocol: as §3
Hot plate test was conducted according to the method described. The hot plate test apparatus (model YSL-21, Jinan, China) was placed in a quiet room, and the temperature was set at 55 ± 1 °C. After each mouse was placed at the hot plate, its nociceptive responses (hind-paw licking or jumping) and nociceptive threshold (paw withdrawal latency) were observed and recorded. […] The mice displaying abnormal baseline paw withdrawals (shorter than 5 s and longer than 30 s) were excluded from the test.

C57BL/6 mice, SNI model = test: Spared nerve injury (SNI) model; type: in vivo, mouse (C57BL/6); details: morphine 1 mg/kg; 18 days after surgery; control 0.47 g; n = 8
Protocol: as §3

Nav1.7 [6] = details: cited from earlier work
Text: In order to further understand the actions of HpTx3 on the Nav1.7 channel, we examined the effect of the toxin on the current–voltage (I–V) relationship of the Nav channel subtype. […] When the conductance–voltage (G–V) relationship and the steady-state inactivation of Nav1.7 before and after HpTx3 treatment were inve ...

Nav1.1–1.8 = details: cited from earlier work
[7] = test system: rodent models of acute and inflammatory pain; details: cited from earlier work
[8] = HEK293T, whole-cell patch-clamp, mean ± SD, n = 4–6
[9] = also ref 20 (HwTx-IV), 36 (HnTx-III), 37 (HnTx-IV)

T7 sequence (Q15858 other isoform, or with tags, fused parts or gaps D816N): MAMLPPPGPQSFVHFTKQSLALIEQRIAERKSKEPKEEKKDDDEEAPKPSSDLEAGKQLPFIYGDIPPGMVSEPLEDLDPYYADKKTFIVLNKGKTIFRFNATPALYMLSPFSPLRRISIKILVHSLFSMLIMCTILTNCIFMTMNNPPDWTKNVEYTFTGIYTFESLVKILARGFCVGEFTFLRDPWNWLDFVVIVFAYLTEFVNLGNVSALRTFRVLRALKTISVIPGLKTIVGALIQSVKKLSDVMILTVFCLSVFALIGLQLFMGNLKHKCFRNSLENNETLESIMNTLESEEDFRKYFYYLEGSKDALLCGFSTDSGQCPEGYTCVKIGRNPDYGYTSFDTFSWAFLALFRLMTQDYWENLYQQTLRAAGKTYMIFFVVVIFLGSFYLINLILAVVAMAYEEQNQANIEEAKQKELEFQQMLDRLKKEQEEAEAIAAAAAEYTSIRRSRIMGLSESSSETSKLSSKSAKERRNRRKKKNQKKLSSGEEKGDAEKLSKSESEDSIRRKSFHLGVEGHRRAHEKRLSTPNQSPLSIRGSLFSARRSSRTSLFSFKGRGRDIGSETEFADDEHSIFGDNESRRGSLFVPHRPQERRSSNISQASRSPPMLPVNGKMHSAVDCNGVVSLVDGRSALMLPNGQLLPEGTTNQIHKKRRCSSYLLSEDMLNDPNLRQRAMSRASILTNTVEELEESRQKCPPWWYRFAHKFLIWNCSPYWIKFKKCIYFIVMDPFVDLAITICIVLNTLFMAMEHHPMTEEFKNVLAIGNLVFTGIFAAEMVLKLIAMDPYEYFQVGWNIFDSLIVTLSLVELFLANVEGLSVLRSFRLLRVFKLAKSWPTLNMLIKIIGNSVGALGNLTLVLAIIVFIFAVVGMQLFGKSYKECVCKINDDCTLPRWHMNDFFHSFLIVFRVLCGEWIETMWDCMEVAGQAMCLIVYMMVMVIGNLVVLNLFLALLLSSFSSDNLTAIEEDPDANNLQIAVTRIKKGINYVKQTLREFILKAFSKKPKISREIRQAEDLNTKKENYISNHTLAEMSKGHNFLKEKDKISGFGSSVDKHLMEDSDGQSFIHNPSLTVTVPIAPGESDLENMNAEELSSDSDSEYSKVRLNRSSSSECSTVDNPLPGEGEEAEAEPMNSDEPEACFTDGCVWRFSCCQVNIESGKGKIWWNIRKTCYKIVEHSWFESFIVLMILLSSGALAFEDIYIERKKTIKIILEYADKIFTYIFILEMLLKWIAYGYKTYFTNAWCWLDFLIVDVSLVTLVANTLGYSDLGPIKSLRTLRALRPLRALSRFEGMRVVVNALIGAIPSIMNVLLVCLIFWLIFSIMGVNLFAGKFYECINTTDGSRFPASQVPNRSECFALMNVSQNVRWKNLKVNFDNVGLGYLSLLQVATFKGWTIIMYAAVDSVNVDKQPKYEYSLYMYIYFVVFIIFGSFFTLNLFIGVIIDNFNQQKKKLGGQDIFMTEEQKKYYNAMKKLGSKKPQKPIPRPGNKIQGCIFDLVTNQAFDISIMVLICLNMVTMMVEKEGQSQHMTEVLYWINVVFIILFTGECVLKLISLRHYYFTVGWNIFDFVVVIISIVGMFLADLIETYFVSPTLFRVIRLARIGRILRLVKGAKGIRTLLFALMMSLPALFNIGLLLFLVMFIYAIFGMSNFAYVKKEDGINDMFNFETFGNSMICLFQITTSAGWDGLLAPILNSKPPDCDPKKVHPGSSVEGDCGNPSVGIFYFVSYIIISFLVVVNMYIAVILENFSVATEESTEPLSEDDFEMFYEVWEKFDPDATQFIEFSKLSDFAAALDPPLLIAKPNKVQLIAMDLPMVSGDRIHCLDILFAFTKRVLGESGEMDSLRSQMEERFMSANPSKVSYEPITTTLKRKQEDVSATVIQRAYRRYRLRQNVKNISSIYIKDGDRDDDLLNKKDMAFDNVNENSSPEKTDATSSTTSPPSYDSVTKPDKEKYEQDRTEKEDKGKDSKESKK
T7 sequence (Q07699 19-218, further chain): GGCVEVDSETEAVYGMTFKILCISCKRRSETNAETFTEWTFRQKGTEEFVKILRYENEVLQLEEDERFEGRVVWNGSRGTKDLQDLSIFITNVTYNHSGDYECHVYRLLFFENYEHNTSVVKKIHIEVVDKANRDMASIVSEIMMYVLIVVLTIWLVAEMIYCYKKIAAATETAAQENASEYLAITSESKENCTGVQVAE
T7 sequence (O60939 30-215, further chain): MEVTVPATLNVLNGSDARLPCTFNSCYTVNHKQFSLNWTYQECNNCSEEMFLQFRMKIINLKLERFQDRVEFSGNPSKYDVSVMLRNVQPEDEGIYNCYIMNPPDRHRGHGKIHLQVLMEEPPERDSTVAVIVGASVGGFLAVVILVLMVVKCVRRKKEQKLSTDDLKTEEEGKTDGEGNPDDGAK
T2 sequence (P08104 whole entry): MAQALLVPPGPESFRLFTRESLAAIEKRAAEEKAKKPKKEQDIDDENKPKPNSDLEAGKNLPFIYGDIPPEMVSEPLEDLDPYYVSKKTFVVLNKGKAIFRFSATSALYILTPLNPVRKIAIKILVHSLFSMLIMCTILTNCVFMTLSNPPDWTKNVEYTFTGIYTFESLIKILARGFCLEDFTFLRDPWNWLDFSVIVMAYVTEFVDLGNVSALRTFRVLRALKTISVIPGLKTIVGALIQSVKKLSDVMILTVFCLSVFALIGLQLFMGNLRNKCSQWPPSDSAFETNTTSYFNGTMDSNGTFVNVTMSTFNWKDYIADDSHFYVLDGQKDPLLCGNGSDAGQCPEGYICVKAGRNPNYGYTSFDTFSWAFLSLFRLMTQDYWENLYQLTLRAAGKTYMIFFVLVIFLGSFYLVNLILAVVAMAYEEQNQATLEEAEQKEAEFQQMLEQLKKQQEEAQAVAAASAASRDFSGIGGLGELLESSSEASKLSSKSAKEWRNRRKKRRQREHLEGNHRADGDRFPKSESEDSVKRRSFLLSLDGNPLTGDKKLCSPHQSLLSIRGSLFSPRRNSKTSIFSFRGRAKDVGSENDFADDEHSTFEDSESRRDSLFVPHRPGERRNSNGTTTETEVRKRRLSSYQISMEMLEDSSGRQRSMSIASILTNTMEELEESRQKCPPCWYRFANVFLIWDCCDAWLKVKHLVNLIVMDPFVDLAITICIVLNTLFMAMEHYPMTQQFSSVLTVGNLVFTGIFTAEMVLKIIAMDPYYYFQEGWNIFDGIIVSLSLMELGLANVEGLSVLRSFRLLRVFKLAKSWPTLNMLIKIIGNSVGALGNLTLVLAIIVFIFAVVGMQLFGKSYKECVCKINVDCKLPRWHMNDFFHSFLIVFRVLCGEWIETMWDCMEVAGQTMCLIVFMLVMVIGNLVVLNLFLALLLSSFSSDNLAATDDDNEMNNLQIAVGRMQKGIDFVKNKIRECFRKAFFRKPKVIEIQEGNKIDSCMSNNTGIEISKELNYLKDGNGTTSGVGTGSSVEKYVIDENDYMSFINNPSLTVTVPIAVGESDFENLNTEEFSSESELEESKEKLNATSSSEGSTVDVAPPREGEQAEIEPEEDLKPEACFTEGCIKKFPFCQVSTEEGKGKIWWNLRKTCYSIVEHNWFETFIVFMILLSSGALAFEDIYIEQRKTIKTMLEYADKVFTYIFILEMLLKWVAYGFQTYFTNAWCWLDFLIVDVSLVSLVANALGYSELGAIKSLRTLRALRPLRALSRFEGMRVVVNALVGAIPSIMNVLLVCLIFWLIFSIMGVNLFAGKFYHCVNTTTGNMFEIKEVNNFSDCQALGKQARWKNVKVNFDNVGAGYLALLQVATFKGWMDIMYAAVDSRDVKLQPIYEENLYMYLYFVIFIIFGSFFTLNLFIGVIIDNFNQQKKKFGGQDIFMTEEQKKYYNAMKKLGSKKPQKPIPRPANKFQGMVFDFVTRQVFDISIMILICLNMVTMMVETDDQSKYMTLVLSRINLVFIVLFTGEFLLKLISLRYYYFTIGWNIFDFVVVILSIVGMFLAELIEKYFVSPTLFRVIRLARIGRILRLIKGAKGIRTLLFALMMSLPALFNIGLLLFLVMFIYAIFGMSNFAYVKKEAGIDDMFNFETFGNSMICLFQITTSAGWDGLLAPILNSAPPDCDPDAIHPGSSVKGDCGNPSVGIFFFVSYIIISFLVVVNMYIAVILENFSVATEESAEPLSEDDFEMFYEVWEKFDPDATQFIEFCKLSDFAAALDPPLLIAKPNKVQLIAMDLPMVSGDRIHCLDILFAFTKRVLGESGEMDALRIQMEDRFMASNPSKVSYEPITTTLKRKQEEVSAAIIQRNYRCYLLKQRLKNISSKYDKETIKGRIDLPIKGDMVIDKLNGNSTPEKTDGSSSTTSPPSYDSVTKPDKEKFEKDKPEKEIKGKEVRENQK
T6 sequence (O60939 30-215): as the sequence (O60939 30-215, further chain) above
T6 sequence (Q07699 19-218, further chain): as the sequence (Q07699 19-218, further chain) above
T6 sequence (Q15858 other isoform, or with tags, fused parts or gaps): as the sequence (Q15858 other isoform, or with tags, fused parts or gaps D816N) above, with N816D counted along it

CC[C@H](C)[C@@H]1NC(=O)[C@H](Cc2ccccc2)NC(=O)CNC(=O)[C@H](CCC(=O)O)NC(=O)[C@@H]2CSSC[C@H](NC(=O)[C@@H](N)CCC(=O)O)C(=O)NCC(=O)N[C@@H]([C@@H](C)O)C(=O)N[C@@H](CC(C)C)C(=O)N[C@@H](Cc3ccccc3)C(=O)N[C@@H](CO)C(=O)NCC(=O)N[C@H]3CSSC[C@H](NC1=O)C(=O)N[C@@H](CCCCN)C(=O)N[C@@H](CC(C)C)C(=O)N[C@@H](Cc1c[nH]c4ccccc14)C(=O)N[C@H](C(=O)N[C@@H](CCCNC(=N)N)C(=O)N[C@@H](Cc1ccc(O)cc1)C(=O)N[C@@H](CCC(=O)O)C(=O)N[C@@H](CCCNC(=N)N)C(=O)N[C@H](C(=O)N[C@@H](Cc1c[nH]c4ccccc14)C(N)=O)[C@@H](C)O)CSSC[C@H](NC(=O)[C@H](CC(=O)O)NC(=O)[C@H](C)NC(=O)[C@H](Cc1c[nH]cn1)NC(=O)[C@H]([C@@H](C)O)NC(=O)[C@H](CO)NC3=O)C(=O)N2 [HpTx3, Heteropodatoxin3] (H-ECGTLFSGCSTHADCCEGFICKLWCRYERTW-NH2; disulfide 2-16, 9-21, 15-25)
IC50 (Nav1.2; [8]): 19.7 ± 0.49 µM
selectivity for Nav1.7 over Nav1.2 (Nav1.2; ratio of IC50): 145 fold
IC50 (Nav1.3; [8]): 14.1 ± 2.5 µM
selectivity for Nav1.7 over Nav1.3 (Nav1.3; ratio of IC50): 104 fold
IC50 (Nav1.4; [8]): 18.5 ± 0.21 µM
selectivity for Nav1.7 over Nav1.4 (Nav1.4; ratio of IC50): 136 fold
inhibition at 1 µM (Nav1.5; HEK-293T, 1 μM HpTx3, HEK293T, whole-cell patch-clamp, n = 4–6, read-out: inhibition of Nav1.5 currents): 12.8%
selectivity for Nav1.7 over Nav1.5 (Nav1.5; ratio of IC50): 122 fold
inhibition at 1 µM (Nav1.6): 46%
IC50 (Nav1.7 [1]): 0.136 ± 0.013 µM
IC50 (Nav1.7 D816N; HEK293T, mean ± SD, n = 6): 3.13 ± 2.6 µM
inhibition at 1 µM (Nav1.7 D816N; HEK-293T, 1 μM HpTx3, HEK293T, n = 6, read-out: inhibition of Nav1.7 D816N current): 23.7%
IC50 difference Nav1.7 D816N versus wild type Nav1.7 (Nav1.7 D816N; ratio of IC50): 23 fold
course of symptoms (C57BL/6 mice; after 5 min and after 10 min): the symptoms became gradually weaker and disappeared completely after 10 min
symptoms after injection (C57BL/6 mice; within 5 min after injection): some discomfort symptoms such as body curling and writhing
inhibition of hERG channel current (hERG channel): about 40%

O=C1[O][Pt]2([NH][C@@H]3CCCC[C@H]3[NH]2)[O]C1=O [Oxaliplatin]
effect on nociceptive neuron excitability [2]: increases nociceptive neuron excitability to result in neuropathic pain

CN1CC[C@]23c4c5ccc(O)c4O[C@H]2[C@@H](O)C=C[C@H]3[C@H]1C5 [morphine]
total paw licking time, phase I ([3]; 0–10 min after formalin, control 248 s): 99 s
total paw licking time, phase II ([3]; 15–35 min after formalin, control 572.7 s): 134.3 s
time of strongest analgesic effect after injection, CFA [4]: 0.5 h
paw withdrawal threshold, CFA ([4]; control 0.71 g, n = 8): 1.05 g
time of most analgesic effect after injection, hot plate [5]: 0.5 h
average paw withdrawal latency, hot plate ([5]; 55 ± 1 °C, control 5.93 s, n = 8): 11.03 s
average paw withdrawal threshold, SNI (C57BL/6 mice, SNI model): 1.05 g

HwTx-IV: Nav1.7-targeting peptide toxin
alteration in voltage-dependence of activation and steady-state inactivation of Nav1.7 (Nav1.7 [6]; [9]): less than 5 mV
effect on I-V relationship for Nav1.7 (Nav1.7 [6]; [9]): do not alter the I-V relationship

ProTx-II: typical gating modifier toxin
shift of Nav1.7 channel activation in the depolarizing direction (Nav1.7 [6]): 31.1 mV
inhibition of sodium channel subtypes (Nav1.1–1.8): can inhibit multiple sodium channel subtypes (Nav1.1–1.8), but preferentially inhibits hNav1.7
efficacy in rodent models of acute and inflammatory pain [7]: not efficacious
